Reference: US20030207813A1, “Retroviral protease inhibitor combinations” (priority 1995, published 2003)
Converted amounts (≈) assume the structure as drawn.

Each compound was assayed on SF162R (resistant strains selected from SF162 against Example 1) (assay: Acute infectivity assay in PHA-activated donor lymphocytes, resistant isolate SF162R). Conditions: Human immunodeficiency virus 1, Lymphocyte, Table 1, read-out: Virus Isolate (EC50 ng/mL) SF162R.
Assay type: cell-based, HIV-1
Procedure: Approximately 3×10^7 cells are activated for 48 hours with about 3-5 μg/ml PHA in RPMI continuing 10% fetal bovine serum and IL-2 (10 U/ml). Quantitated virus stocks are added to the activated lymphocyte suspension at a multiplicity of infection of about 0.001-0.01. The cell-virus suspension is incubated at 37° C. for 2 hours to allow virus absorption. The residual virus inoculum is removed by centrifugation and the cells are resuspended in RPMI containing 10% FBS and 10 U/ml IL-2. These infected cells are added to the test-article diluted in complete tissue culture medium from a stock (10 mg/ml) in DMSO in 96 well microtiter plates to give about 5×10^5 cells per well per 200 μl. Infected, untreated cells and cells treated with DMSO alone (0.1%) or either AZT or DDI were used as controls. The cultures were examined for syncytia formation on days 7 and 11 post-infection or the supernants tested for reverse transcriptase activity or p24 antigen.
RF represents the HIV-1 strain HIV-LRF and RFR represents a mixture of resistant strains obtained by selection of RF against the compound of Example 1. RFR comprises a mixture of viral strains having protease genotypes of G48V (14/40 clones); G48V, V82A (18/40 clones); G48V, L90S (2/40 clones); G48V, 154T, V82A (1/40 clones); G48M (1/40 clones); G48V, Q61H (1/40 clones); V13I, G48V (1/40 clones); G48V, F53L, V82A (1/40 clones); and G48V, V82A, C95Y (1/40 clones). RFR2 represents a mixture of resistant strains obtained by cloning RFR by three rounds of growth at limiting dilution. RFR2 comprises a mixture of viral strains having protease genotypes of G48V, V82A (13/15 clones); G17E, G48V, V82A (1/15 clones); and G48V, V82A, N37D, N88D (1/15 clones). RFRR represents a mixture of resistant strains obtained by selection of RF against the compounds of Examples 1 and 2 and then cloning by three rounds of growth at limiting dilution. RFRR comprises a mixture of viral strains having protease genotypes of G48V, 154T, L63P, V82A (7/9 clones); G48V, 154T, L63P, V82A, N88S (1/9 clones); and G48V, 154T, L63P, G73M, V82A (1/9 clones). SF162 represents the HIV-1 strain SF-162 and SF162R represents a mixture of resistant strains obtained by selection of SF162 against the compound of Example 1. SF162R comprises a mixture of viral strains having protease genotypes of M461, F53L, L63P, A71V, N88D (2/3 clones); and M46I, F53L, L63P, A71V, N88D, Q92R (1/3 clones). 89-959 represents the HIV-1 strain 89-959 and 89-959R represents a mixture of resistant strains obtained by selection of 89-959 against the compound of Example 2. 89-959R comprises a mixture of viral strains having protease genotypes of N88S (4/5 clones); and D25N, T26A, D30N, D37N, R41K, G73D, R87K, N88S (1/4 clones). NL4 represents the HIV-1 strain HIV-1NL4-3. NL4(G48V) represents a strain having a synthetically generated site-directed mutation in the protease from glycine to valine at amino acid position number 48. NL4(I84V) represents a strain having a synthetically generated site-directed mutation in the protease from isoleucine to valine at amino acid position number 84. NL4(R8Q,M46I) represents a strain having synthetically generated site-directed mutations in the protease from arginine to glutamine at amino acid position number 8 and methionine to isoleucine at amino acid position number 46. NL4(P22-538) represents a mixture of resistant strains obtained by selection of HIV-1NL4-3 against the compound of Example 10 after 22 passages comprising protease genotypes M46I, L63P, A71V, V82F, I84V (4/10); M46I, L63P, V82F, I84V (3/10); and M46I, A71V, V82F, I84V (3/10). NL4(P37-538) represents resistant strains obtained by selection of HIV-1NL4-3 against the compound of Example 10 after 37 passages comprising protease genotype M46I, L63P, A71V, 184A. NL4(538/524) represents resistant strains obtained by selection of NL4(P22-538) against the compound of Example 5 after 24 passages comprising protease genotype M46I, L63P, A71V, 184A. […]
For `CC(C)CN(C[C@@H](O)[C@H](Cc1ccccc1)NC(=O)[C@H](CC(N)=O)NC(=O)c1ccc2ccccc2n1)C(=O)NC(C)(C)C` (relative stereo) [Example 1, [1S-[1R*(R*),2S*]]-N^1-[3-[[[(1,1-dimethylethyl)amino]carbonyl])2-methylpropyl)amino]-2-hydroxy-1-(phenylmethyl)propyl]-2-[(2-quinolinylcarbonyl)amino]-butanediamide], the EC50 was 443 ng/mL (≈ 0.733 µM).
Work on `CC(C)(C)NC(=O)[C@@H]1CC2CCCC[C@@H]2CN1C[C@@H](O)[C@H](Cc1ccccc1)NC(=O)[C@H](CC(N)=O)NC(=O)c1ccc2ccccc2n1` (stereo in doubt) [Example 6, N-tert-Butyl decahydro-2-[2(R)-hydroxy-4-phenyl-3(S)-[[N-(2-quinolylcarbonyl)-L-asparaginyl]amino]butyl]-(4aR,8aS)-isoquinoline-3(S)-carboxamide] yielded an EC50 of 11 ng/mL (≈ 0.0164 µM).
Compound `CNCC(=O)N[C@H](C(=O)N[C@@H](Cc1ccccc1)[C@H](O)CN(CCC(C)C)C(=O)NC(C)(C)C)C(C)(C)C` [Example 2, (2R,3S)-3-(N-methylaminoacetyl-L-tert-butylglycinyl)amino-1-(N-isoamyl-N-(tert-butylcarbamoyl))amino-4-phenyl-2-butanol] has an EC50 of 6 ng/mL (≈ 0.0112 µM).

Same assay, conditions: Human immunodeficiency virus 1, Lymphocyte, Table 2, read-out: Virus Isolate (EC50 ng/mL) SF162R
Compound `CC(C)CN(C[C@@H](O)[C@H](Cc1ccccc1)NC(=O)[C@H](CC(N)=O)NC(=O)c1ccc2ccccc2n1)C(=O)NC(C)(C)C` (relative stereo) [Example 1, [1S-[1R*(R*),2S*]]-N^1-[3-[[[(1,1-dimethylethyl)amino]carbonyl])2-methylpropyl)amino]-2-hydroxy-1-(phenylmethyl)propyl]-2-[(2-quinolinylcarbonyl)amino]-butanediamide] has an EC50 of 111 ng/mL (≈ 0.184 µM).
Work on `CC(C)CCN(C[C@@H](O)[C@H](Cc1ccccc1)NC(=O)[C@H](CC(N)=O)NC(=O)c1ccc2ccccc2n1)C(=O)NC(C)(C)C` (relative stereo) [Example 7, [1S-[1R*(R*),2S*]]-N^1-[3-[[[(1,1-dimethylethyl)amino]carbonyl](3-methylbutyl)amino]-2-hydroxy-1-(phenylmethyl)propyl]-2-[(2-quinolinylcarbonyl)amino]-butanediamide] yielded an EC50 of 108 ng/mL (≈ 0.175 µM).
`CC(C)CN(C[C@@H](O)[C@H](Cc1ccccc1)NC(=O)[C@H](CC(N)=O)NC(=O)c1ccc2ccccc2n1)S(=O)(=O)NC(C)(C)C` [Example 8, N-[3-[N^2-[N^1-(1,1-dimethylethyl)aminosulfonyl]-N^2-(2-methylpropyl)amino]-2R-hydroxy-1S-(phenylmethyl)propyl]-2S-[(2-quinolinylcarbonyl)amino]butanediamide] was tested, and the EC50 was 98 ng/mL (≈ 0.153 µM).
